Measurements published in patent US12145923B2, “Tetrahydroisoquinoline compound, preparation method therefor, pharmaceutical composition containing same, and use thereof” (SHANGHAI INSTITUTE OF MATERIA MEDICA, CHINESE ACADEMY OF …, priority 2018, dated 2024).
Like-named read-outs stand apart in the source and are kept apart here.

What was measured:
RAW 264.7 cells = assay: Cytotoxicity on RAW 264.7 cells (CCK-8 method); assay type: cell-based, mouse
Method: Mouse RAW 264.7 cells were purchased from American Type Culture Collection (Manassas, VA, USA), and cultivated in DMEM culture medium (Hyclone, South Logan, UT, USA) containing 10% fetal bovine serum (Hyclone, South Logan, UT, USA). Cells were collected and counted before use, and inoculated in a 96-well plate (Corning, NY, USA) at 1×10^5/well. […] 20 μl of CCK-8 solution (Dojindo, Kumamoto, Japan) was added at 30 min before the end of the culture. After the cultivation was ended, the absorbance OD value was measured at 450 nm (reference 650 nm) on amicroplate reader (Molecular Devices, Sunnyvale, CA, USA). The toxicity of the compound on RAW 264.7 cells was calculated by dividing the OD value of the test sample by the OD value of the cell control well, which was labeled as the cell survival rate M %.

[1] = system: tumor necrosis factor-α secretion in RAW 264.7 cells; assay: Inhibition of LPS-stimulated tumor necrosis factor-α secretion in RAW 264.7 cells (ELISA); assay type: cell-based, mouse; details: Mus musculus, RAW264.7, 4 h, read-out: Tumor necrosis factor-α inhibition rate/%
Method: After the activation by bacterial lipopolysaccharide (LPS), various inflammatory mediators such as tumor necrosis factor-α will be released; Phosphodiesterase PDE4 is also expressed in macrophages, and the inhibitory activity of the compound on phosphodiesterase PDE4 can be reflected by detecting the secretion of tumor necrosis factor-α.
Under the stimulation of 1 μg/ml LPS (L5886, Sigma, St. Louis, MO, USA), the cells were cultured in a 37° C., 5% CO2 incubator for 4 h. The background control with no stimulant and stimulation control wells were also set, with a total volume of 200 μl. The culture supernatant was collected by centrifugation, and the secretion level of tumor necrosis factor-α in the culture supernatant was detected by enzyme-linked immunosorbent assay. The tumor necrosis factor-α detection kit was purchased from BD Pharmingen (San Diego, CA, USA).

TNF-α secretion in PBMC = assay: Inhibition of LPS-stimulated TNF-α secretion in PBMC (ELISA); assay type: cell-based; details: Homo sapiens, read-out: Inhibition rate %
From the text: According to the difference in cell density in human blood, PBMC (peripheral blood mononuclear cell, PBMC) was directly separated and purified by gradient centrifugation using lymphocyte separation fluid. The cell type was mononuclear cells in blood, mainly including lymphocytes (T/B), monocytes, macrophages, dendritic cells and other minor cell types, of which lymphocytes account for a large part, which can directly in vitro simulate the blood immune environment.
PBMC cells isolated from human blood were implanted into 96-well plates at 2*10^5/ml; compounds in gradients were added, with at least three replicates for each gradient; After the PBMCs were incubated at 37° C., 5% CO2 for 1 hour, LPS was added (the final concentration was 10 ug/ml) to stimulate PBMC to express TNF-α, and incubated for another 18-20 h at 37° C., 5% C02. The 96-well plate was collected. The background control with no stimulant and stimulation control wells were also set, with a total volume of 200 μl. The culture supernatant was collected by centrifugation, and the expression level of TNF-α in the culture supernatant was detected by ELISA.

[2] = target: Human PDE4D catalytic domain (Homo sapiens (Human), UniProt Q08499); assay: Scintillation Proximity Assay (SPA), inhibition of PDE4D catalytic domain activity; assay type: biochemical; details: for inhibition at 1 µM: read-out: PDE4D enzyme activity inhibition rate %
Sequence of Human PDE4D catalytic domain (Q08499 386-715): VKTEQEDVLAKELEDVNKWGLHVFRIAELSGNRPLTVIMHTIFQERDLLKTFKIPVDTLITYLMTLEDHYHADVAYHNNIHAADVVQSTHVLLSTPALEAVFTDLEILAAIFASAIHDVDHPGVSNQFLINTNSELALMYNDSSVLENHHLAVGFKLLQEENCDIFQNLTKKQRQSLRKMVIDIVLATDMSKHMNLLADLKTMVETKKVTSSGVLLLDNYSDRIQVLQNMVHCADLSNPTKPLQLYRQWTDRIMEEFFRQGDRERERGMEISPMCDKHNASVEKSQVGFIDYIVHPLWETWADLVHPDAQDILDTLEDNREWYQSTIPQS
Method: The scintillation Proximity Assay (SPA) method was used to determine the inhibitory effect of compounds on the activity of PDE4D catalytic domain. Human PDE4D catalytic domain protein was obtained by expression and purification in E. coli. […] [^3H]-cAMP, scintillation beads (RPNQO150, Perkin Elmer), and 96-well scintillation microplates (Isoplate-96, Perkin Elmer) were purchased from Perkin Elmer Company.
Finally, 10 μl [^3H]-cAMP (0.005 μCi/μl) was added and incubated for 30 min at 30° C. in a water bath. 50 μl SPA beads was added to quench the reaction, shaked appropriately, and stood for 20 minutes. A microplate scintillation counter was used.

[3] = PDE4D, unit given as mM, read-out: IC50

Structure (SMILES)	Cell survival rate/% (RAW 264.7 cells; RAW 264.7, 0.5 μM) [%]	Cell survival rate/% (RAW 264.7 cells; RAW 264.7, 5 μM) [%]	Cell survival rate/% (RAW 264.7 cells; RAW 264.7, 50 μM) [%]	inhibition at 0.5 µM ([1]; RAW 264.7, 0.5 μM) [%]	inhibition at 5 µM ([1]; RAW 264.7, 5 μM) [%]	inhibition at 50 µM ([1]; RAW 264.7, 50 μM) [%]	inhibition at 10 µM (TNF-α secretion in PBMC; TNF-α secretion in PBMC, 10 μM) [%]	inhibition at 1 µM ([2]; Compound concentration: 1 μM) [%]	other results
COCCN1CCc2cc(OC)c(OC)cc2C1CCc1c[nH]c2ccccc12 (stereo not drawn) [Compound B2, 1-(2-(1H-indol-3-yl)ethyl)-6,7-dimethoxy-2-(2-methoxyethyl)-1,2,3,4-tetrahydroisoquinoline]	88.3	83.5	71.4	6.2	18.8	83.9	25.7	19.2	
COc1cc2c(cc1OC)C(CCc1c[nH]c3ccccc13)N(CCS(C)(=O)=O)CC2 (stereo not drawn) [Compound B8, 1-(2-(1H-indol-3-yl)ethyl)-6,7-dimethoxy-2-(2-(methylsulfonyl)ethyl)-1,2,3,4-tetrahydroisoquinoline]	113.4	100.7	100.5	33.6	36.1	31.8	77.8	68.5	inhibition at 1 µM (TNF-α secretion in PBMC; TNF-α secretion in PBMC, 1 μM): 31.6%; IC50 [2, 3]: 0.00057 mM
COc1cc2c(cc1OC1CCCC1)C(CCc1c[nH]c3ccccc13)N(C=O)CC2 (stereo not drawn) [Compound A2, 1-(2-(1H-indol-3-yl)ethyl)-7-(cyclopentyloxy)-6-metthoxy-3,4-dihydroisoquinoline-2(1H)-formaldehyde]	111.6	113	55.1	9.7	-4.4	99.4	43	19.2	IC50 [2, 3]: 0.00299 mM
COc1cc2c(cc1OC)C(CCc1c[nH]c3ccccc13)N(CC1CCOCC1)CC2 (stereo not drawn) [Compound B7, 1-(2-(1H-indol-3-yl)ethyl)-6,7-dimethoxy-2-((tetrahydro-2H-pyran-4-yl)methyl)-1,2,3,4-tetrahydroisoquinoline]	98.1	114.1	122.6	4.3	2.3	82.2	36.6	6.7	
COc1cc2c(cc1OC1CCCC1)C(CCc1c[nH]c3ccc(Br)cc13)N(C=O)CC2 (stereo not drawn) [Compound C1, 1-(2-(5-bromo-1H-indol-3-yl)ethyl)-7-(cyclopentyloxy)-6-methoxy-3,4-dihydroisoquinoline-2(1H)-formaldehyde]	100.9	125.1	110.5						inhibition at 0.5 µM [1]: 2.8%; inhibition at 5 µM [1]: -5.2%; inhibition at 50 µM [1]: 33.7%; inhibition at 1 µM (TNF-α secretion in PBMC; PBMC): 27.1%; inhibition at 10 µM (TNF-α secretion in PBMC; PBMC): 72.4%; IC50 [2]: 0.0015 mM; inhibition at 1 µM [2]: 26.4%
COC(=O)CN1CCc2cc(OC)c(OC)cc2C1CCc1c[nH]c2ccccc12 (stereo not drawn) [Compound B5, methyl-2-(1-(2-(1H-indol-3-yl)ethyl)-6,7-dimethoxy-3,4-dihydroisoquinoline-2(1H)-yl) acetate]	86	88.2	103.8						inhibition at 0.5 µM [1]: -2.1%; inhibition at 5 µM [1]: 20%; inhibition at 50 µM [1]: 47.9%; inhibition at 1 µM (TNF-α secretion in PBMC; PBMC): 21.7%; inhibition at 10 µM (TNF-α secretion in PBMC; PBMC): 55.2%; inhibition at 1 µM [2]: 39.1%
CCOc1cc2c(cc1OC)CCN(C(=O)COC)[C@H]2CCc1c[nH]c2ccccc12 [(S)-B12, (S)-1-(1-(2-(1H-indol-3-yl)ethyl)-7-ethoxy-6-methoxy-3,4-dihydroisoquinoline-2(1H)-yl)-2-methoxyethane-1-one]	83.8	95.3	75.2	-12.7	6.8	52.4	80.7	92.2	inhibition at 1 µM (TNF-α secretion in PBMC; TNF-α secretion in PBMC, 1 μM): 44.2%; IC50 [2, 3]: 0.00025 mM
CCOc1cc2c(cc1OC)CCN(S(=O)(=O)c1ccccc1F)[C@H]2CCc1c[nH]c2ccc(OC)cc12 [(S)-C57, (S)-7-ethoxy-6-methoxy-1-(2-(5-methoxy-1H-indol-3-yl)ethyl)-2-(2-fluorophenyl)sulfonyl-1,2,3,4-tetrahydroisoquinoline]								66.5	
CCOc1cc2c(cc1OC)CCN(S(=O)(=O)CC)[C@H]2CCc1c[nH]c2ccc(OC)cc12 [(S)-C53, (S)-7-ethoxy-6-methoxy-1-(2-(5-methoxy-1H-indol-3-yl)ethyl)-2-ethylsulfonyl-1,2,3,4-tetrahydroisoquinoline]								56.3	
CCOc1cc2c(cc1OC)CCN(S(=O)(=O)c1ccc(F)c(F)c1)[C@H]2CCc1c[nH]c2ccc(OC)cc12 [(S)-C51, (S)-7-ethoxy-6-methoxy-1-(2-(5-methoxy-1H-indol-3-yl)ethyl)-2-(3,4-difluorophenyl)sulfonyl-1,2,3,4-tetrahydroisoquinoline]								37.9	
CCOc1cc2c(cc1OC)CCN(S(=O)(=O)c1ccccc1)[C@H]2CCc1c[nH]c2ccc(OC)cc12 [(S)-C47, (S)-7-ethoxy-6-methoxy-1-(2-(5-methoxy-1H-indol-3-yl)ethyl)-2-phenylsulfonyl-1,2,3,4-tetrahydroisoquinoline]								49.4	
CCOc1cc2c(cc1OC)CCN(S(=O)(=O)c1ccc(F)cc1F)[C@H]2CCc1c[nH]c2ccc(OC)cc12 [(S)-C52, (S)-7-ethoxy-6-methoxy-1-(2-(5-methoxy-1H-indol-3-yl)ethyl)-2-(2,4-difluorophenyl)sulfonyl-1,2,3,4-tetrahydroisoquinoline]								36.8	
